From PubChem BioAssay (NCI)
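Where inhibition never reached the appropriate level, the endpoint shown equals the highest concentration tested. Otherwise, values were interpolated linearly from a five-concentration, 48-hour dose response in 96-well plates. Abbreviation: GI50, concentration required for 50% inhibition of growth. TGI: concentration producing complete growth inhibition.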

Legend:
Experiment in all cases: NCI-60 cell line screen, 48 h
DU-145 prostate = system: DU-145 prostate
SN12C renal = system: SN12C renal
SK-MEL-5 melanoma = system: SK-MEL-5 melanoma
SR leukemia = system: SR leukemia
NCI/ADR-RES ovarian = system: NCI/ADR-RES ovarian
ACHN renal = system: ACHN renal
TK-10 renal = system: TK-10 renal
OVCAR-3 ovarian = system: OVCAR-3 ovarian
SW-620 colon = system: SW-620 colon
NCI-H460 lung = system: NCI-H460 lung
M14 melanoma = system: M14 melanoma
HCT-15 colon = system: HCT-15 colon
MDA-MB-435 = system: MDA-MB-435
MOLT-4 leukemia = system: MOLT-4 leukemia
SF-268 CNS = system: SF-268 CNS
SK-MEL-28 melanoma = system: SK-MEL-28 melanoma
OVCAR-5 ovarian = system: OVCAR-5 ovarian
SK-OV-3 ovarian = system: SK-OV-3 ovarian
SF-539 CNS = system: SF-539 CNS
786-0 renal = system: 786-0 renal
A498 renal = system: A498 renal
HOP-92 NSCLC = system: HOP-92 NSCLC
UACC-62 melanoma = system: UACC-62 melanoma
T-47D breast = system: T-47D breast
CCRF-CEM leukemia = system: CCRF-CEM leukemia
CAKI-1 renal = system: CAKI-1 renal
MCF7 breast = system: MCF7 breast
K-562 leukemia = system: K-562 leukemia
RPMI-8226 leukemia = system: RPMI-8226 leukemia

`CN1CCN(Cc2ccc(NC(=O)c3cncc(C#Cc4cnc5ccc(OC6CCOCC6)nn45)c3)cc2C(F)(F)F)CC1` was tested, and the GI50 (DU-145 prostate) was 141 nM, the TGI (DU-145 prostate) was 769 nM and the GI50 (SN12C renal) was 52.9 nM. For the same molecule, the TGI (SN12C renal) was 408 nM, the GI50 (SK-MEL-5 melanoma) was 596 nM and the TGI (SK-MEL-5 melanoma) was 1350 nM. The GI50 (SR leukemia) was 37.8 nM, the TGI (SR leukemia) was 332 nM and the GI50 (NCI/ADR-RES ovarian) was 348 nM. For the same molecule, the TGI (NCI/ADR-RES ovarian) was 1770 nM, the GI50 (ACHN renal) was 105 nM and the TGI (ACHN renal) was 1750 nM. It also gave a GI50 (TK-10 renal) of 90.7 nM, a TGI (TK-10 renal) of 227 nM and a GI50 (OVCAR-3 ovarian) of 123 nM. The TGI (OVCAR-3 ovarian) was 998 nM, the GI50 (SW-620 colon) was 61.3 nM and the TGI (SW-620 colon) was 332 nM. It also gave a GI50 (NCI-H460 lung) of 67.4 nM, a TGI (NCI-H460 lung) of 618 nM and a GI50 (M14 melanoma) of 49.3 nM. It also gave a TGI (M14 melanoma) of 154 nM, a GI50 (HCT-15 colon) of 95.3 nM and a TGI (HCT-15 colon) of 324 nM. For the same molecule, the GI50 (MDA-MB-435) was 61.7 nM, the TGI (MDA-MB-435) was 603 nM and the GI50 (MOLT-4 leukemia) was 36.4 nM. For the same molecule, the TGI (MOLT-4 leukemia) was 638 nM, the GI50 (SF-268 CNS) was 142 nM and the TGI (SF-268 CNS) was 687 nM. The GI50 (SK-MEL-28 melanoma) was 256 nM, the TGI (SK-MEL-28 melanoma) was 1050 nM and the GI50 (OVCAR-5 ovarian) was 257 nM. The TGI (OVCAR-5 ovarian) was 1580 nM, the GI50 (SK-OV-3 ovarian) was 316 nM and the TGI (SK-OV-3 ovarian) was 1160 nM. The GI50 (SF-539 CNS) was 39.3 nM, the TGI (SF-539 CNS) was 526 nM and the GI50 (786-0 renal) was 244 nM. For the same molecule, the TGI (786-0 renal) was 890 nM, the GI50 (A498 renal) was 246 nM and the TGI (A498 renal) was 797 nM. For the same molecule, the GI50 (HOP-92 NSCLC) was 9.44 nM, the TGI (HOP-92 NSCLC) was 65.7 nM and the GI50 (UACC-62 melanoma) was 127 nM. For the same molecule, the TGI (UACC-62 melanoma) was 732 nM, the GI50 (T-47D breast) was 543 nM and the TGI (T-47D breast) was 2420 nM. The GI50 (CCRF-CEM leukemia) was 11.3 nM, the TGI (CCRF-CEM leukemia) was 3130 nM and the GI50 (CAKI-1 renal) was 43.7 nM. The TGI (CAKI-1 renal) was 252 nM, the GI50 (MCF7 breast) was 37.6 nM and the TGI (MCF7 breast) was 415 nM. It also gave a GI50 (K-562 leukemia) of 5 nM, a TGI (K-562 leukemia) of 702 nM and a GI50 (RPMI-8226 leukemia) of 183 nM. For the same molecule, the TGI (RPMI-8226 leukemia) was 973 nM.
